Measurements published in ChEMBL document CHEMBL3137667, “[Drug-induced liver injury; fourteenth updated edition of the bibliographic database of liver injuries and related drugs]” (Gastroenterol Clin Biol, 2004).

Experiments:
[1] = Comments (NB not yet translated). [column 'COMMENTAIRES' in source]; settings: human
[2] = human, serum
[3] = human
[4] = Highest frequency of acute liver toxicity observed during clinical trials, expressed as a percentage. [column '% AIGUE' in source]; settings: human
[5] = Highest frequency of moderate liver toxicity observed during clinical trials, expressed as a percentage. [column '% BIOL' in source]; settings: human
[6] = human; remark: listed apart in the source
[7] = human; remark: listed apart in the source
[8] = human; remark: listed apart in the source
[9] = human; remark: listed apart in the source
[10] = human, serum; remark: listed apart in the source
[11] = human; remark: listed apart in the source
[12] = human; remark: listed apart in the source
[13] = Times to onset, minimal and maximal, observed in the indexed observations. [column 'DELAI' in source]; settings: human
[14] = human; remark: listed apart in the source
[15] = Presence of at least one case with successful reintroduction. [column 'REINT' in source]; settings: human
[16] = human; remark: listed apart in the source
[17] = human, serum, 4383 h
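Wherever Hepatotoxicity (association with vascular disease) is given: count of indexed literature references reporting vascular liver injury in humans, e.g. peliosis hepatitis, hepatic veno-occlusive disease or Budd-Chiari syndrome.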
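Wherever Hepatotoxicity (benign tumour) is given: value is a count of indexed literature references citing a benign tumour confirmed by histopathology.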
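Wherever Hepatotoxicity (choleostasis) is given: human cholestatic liver injury, shown by histopathology or by peak ALT or AST elevation over alkaline phosphatase ratio below 2, value counts indexed literature reports.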
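Wherever Hepatotoxicity (chronic liver disease) is given: chronic liver injury confirmed by histopathology or persistently raised serum aminotransferase activity beyond 6 months, value given as the count of indexed literature references.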
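Wherever Hepatotoxicity (cirrhosis) is given: value is a count of indexed literature references reporting cirrhosis confirmed by histopathology.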
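Wherever Hepatotoxicity (cytolytic) is given: human cytolytic liver injury, shown by histopathology or by a ratio above 5 of peak ALT or AST elevation to alkaline phosphatase elevation, value counts indexed references.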
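Wherever Hepatotoxicity (granulomatous hepatitis) is given: value is a count of indexed literature references reporting granulomatous liver disease confirmed by histopathology.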
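Wherever Hepatotoxicity (malignant tumour) is given: malignant tumour confirmed by histopathology, value gives the count of indexed literature references reporting it.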
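Wherever Hepatotoxicity (severe hepatitis) is given: human clinical data: severe hepatitis, meaning potentially life-threatening liver failure or clinically observed cases, the value counts how many indexed literature references report it.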
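Wherever Hepatotoxicity (steatosis) is given: steatosis confirmed by histopathology, value is the count of indexed references.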

Row | SMILES | Hepatotoxicity (comment) [1] | Hepatotoxicity (acute) [2] | Hepatotoxicity (benign tumour) [3] | Hepatotoxicity (association with vascular disease) [6] | Hepatotoxicity (steatosis) [7] | Hepatotoxicity (granulomatous hepatitis) [8] | Hepatotoxicity (moderate) [10] | Hepatotoxicity (cirrhosis) [11] | Hepatotoxicity (cytolytic) [12] | Hepatotoxicity (time to onset) [13] | Hepatotoxicity (choleostasis) [14] | Hepatotoxicity (successful reintroduction) [15] | Hepatotoxicity (malignant tumour) [16] | Hepatotoxicity (chronic liver disease) [17] | Hepatotoxicity (acute) ([4]; Liver) | Hepatotoxicity (moderate) ([5]; Liver) | Hepatotoxicity (granulomatous hepatitis) ([8]; Liver) | Hepatotoxicity (severe hepatitis) ([9]; Liver) | Hepatotoxicity (cytolytic) ([12]; Liver) | Hepatotoxicity (choleostasis) ([14]; Liver) | also measured
1 | CC(=O)CC(c1ccccc1)c1c(O)c2ccccc2oc1=O (stereo not given) [WARFARIN] | RC/PHENPROCOUMON RUPTURE_HEPATIQUE #S.REYE | 6 | 0 | 0 | 0 | 0 | 2 | 0 | 0 | 1 week - 2.5 years | 5 | yes | 0 | 0 | – | – | – | – | – | – | Hepatotoxicity (acute) [4]: 0%; Hepatotoxicity (moderate) [5]: 0%; Hepatotoxicity (severe hepatitis) [9]: 0
2 | NC(N)=Nc1nc(CSCCC(N)=NS(N)(=O)=O)cs1 [FAMOTIDINE] | RC/CIMETIDINE | 5 | 0 | 0 | 0 | – | 12 | 0 | – | 3 days - 3 weeks | – | yes | 0 | 0 | 0% | 2.8% | 0 | 0 | 4 | 0 | –
3 | c1ccc([C@H]2CN3CCSC3=N2)cc1 [LEVAMISOLE] | I/FLUOROURACIL | 0 | 0 | 0 | 6 | – | 11 | 0 | – | 1 month - 1 year | – | yes | 0 | 0 | 0% | 61.2% | 0 | 0 | 0 | 0 | –
4 | CC(NC(C)(C)C)C(=O)c1cccc(Cl)c1 (stereo not given) [BUPROPION] | PERICHOLANGITE | 4 | 0 | 0 | 0 | 0 | 1 | 0 | 4 | 4 days - 80 days | 2 | yes | 0 | 0 | 0% | 0% | – | 1 | – | – | –
5 | CN[C@H]1CC[C@@H](c2ccc(Cl)c(Cl)c2)c2ccccc21 [SERTRALINE] | CHOLANGIOLITE | 8 | 0 | 0 | 0 | – | 4 | 0 | – | 3 days - 5 months | – | yes | 0 | 0 | 0% | 0.8% | 0 | 1 | 5 | 4 | –
